Measured values from US20090137652A1, “METHODS FOR NEUROPROTECTION” (priority 2005, published 2009).
Values joined by “and” are separate entries in the source; they are usually repeats but may differ in a detail not shown here. Equal entries are not always repeated. Marks after values point to notes of the source that are not given here.

Legend:
Assay type in all cases: in vivo, rat
[1] = system: rats subjected to Li-pilo induced SE; assay: Quantification of cell densities after lithium-pilocarpine SE (Example 1); details: for cell loss, CA1 pyramidal layer: significant vs pilo-DZP
Procedure: (§1) The effects of increasing doses of the test compound were studied on 3 groups of rats. The animals of the first group received 10 mg/kg of the test compound, i.p., 1 h after the onset of SE (pilo-TC10) while the animals of groups 2 and 3 received 30 and 60 mg/kg of the test compound (pilo-TC30 and pilo-TC60), respectively.
(§2) Another group was injected with 2 mg/kg diazepam (DZP, i.m.) at 1 h after the onset of SE. This is a standard treatment to improve animals survival after SE (pilo-DZP). The control group received saline instead of pilocarpine and the test compound (saline-saline). The pilo-test compound rats surviving SE were then injected about 10 h after the first test compound injection with a second i.p. injection of the same dose of the test compound and were maintained under a twice daily treatment with the test compound for 6 additional days. Pilo-DZP received a second injection of 1 mg/kg DZP on the day of SE at about 10 h after the first one. Thereafter, Pilo-DZP and saline-saline rats received twice daily an equivalent volume of saline.
Quantification of cell densities was performed at […] after SE on 8 pilo-DZP, 8 pilo-TC10, 7 pilo-TC30, 7 pilo-TC60, and 6 saline-saline rats. At 14 days after SE, animals were deeply anesthetized with […] pentobarbital (Dolethal®, Vetoquinol, Lure, France. Brains were then removed and frozen. Serial 20 μm slices were cut in a cryostat, air-dried during several days before thionine staining.
Quantification of cell densities was performed with a 10×10 boxes 1 cm^2 microscopic grid on coronal sections according to the stereotaxic coordinates of the rat brain atlas (Paxinos and Watson, 1986, The Rat brain in Stereotaxic Coordinates, 2nd ed. Academic Press, San Diego). Cell counts were performed twice in a blind manner and were the average of at least 3 values from 2 adjacent sections in each individual animal. Counts involved only cells larger than 10 μm, smaller ones being considered as glial cells.
For the comparison of the characteristics of SE in pilo-saline and pilo-test compound animals, a non-paired Student's t-test was used. The comparison between the number of rats seizing in both groups was performed by means of a Chi square test. For neuronal damage, statistical analysis between groups was performed using ANOVA followed by a Fisher's test for multiple comparisons using the Statview software (Fisher R A, 1946a, Statistical Methods for Research Workers (10th edition) Oliver & Boyd, Edinburgh; Fisher R A, 1946b, The Design of Experiments (4th edition) Oliver & Boyd, Edinburgh)

[2] = system: rats subjected to Li-pilo induced SE; assay: Mortality induced by lithium-pilocarpine status epilepticus (Example 1)
Procedure: Male Wistar rats weighing 225-250 g, provided by Janvier Breeding Center (Le Genest-St-lste, France) were housed under controlled standard conditions (light/dark cycle, 7.00 a.m.-7.00 p.m. lights on), with food and water available ad libitum. All animal experimentation was performed in accordance with the rules of the European Communities Council Directive of Nov. 24, 1986 (86/609/EEC), and the French Department of Agriculture (License No 67-97). For electrode implantation, rats were anesthetized by an i.p. injection of 2.5 mg/kg diazepam (DZP, Valium, Roche, France) and […] ketamine chlorhydrate (Imalgene 1000, Rhone Merrieux, France). Four single-contact recording electrodes were placed on the skull, over the parietal cortex, two on each side.
All rats received lithium chloride (3 meq/kg, i.p., Sigma, St Louis, Mo., U.S.A.); about 20 h later, animals were placed into plexiglas boxes, in order to record baseline cortical EEG. Methylscopolamine bromide (1 mg/kg, s.c., Sigma) was administered to limit the peripheral effects of the convulsant. SE was induced by injecting pilocarpine hydrochloride (25 mg/kg, s.c., Sigma) 30 min after methyl-scopolamine. The bilateral EEG cortical activity was recorded during the whole duration of SE and behavioral changes were noted.
as §1, §2
The difference was statistically significant (p<0.01).

[3] = system: rats subjected to li-pilo SE; assay: Latency to and frequency of spontaneous seizures by video recording, lithium-pilocarpine model (Example 2)
Procedure: All rats received lithium chloride (3 meq/kg, i.p., Sigma, St Louis, Mo., U.S.A.) and about 20 h later, all animals received also methylscopolamine bromide (1 mg/kg, s.c., Sigma) that was administered to limit the peripheral effects of the convulsant. SE was induced by injecting pilocarpine hydrochloride (25 mg/kg, s.c., Sigma) 30 min after methylscopolamine. The effects of increasing doses of TC (RWJ) were studied in 5 groups of rats. […] The control group received vehicle instead of pilocarpine and TC. The rats surviving SE were then injected about 10 h after the first TC injection with a second i.p. injection of 1.25 mg/kg DZP for the DZP group or of the same dose of TC as in the morning and were maintained under a twice daily TC treatment (s.c.) for 6 additional days while DZP rats received a vehicle injection.
The effects of DZP and the 4 doses of TC on epileptogenesis were investigated by daily video recording of the animals for 10 h per day. Video recording was performed for 4 weeks during which the occurrence of the first seizure was noted as well as the total number of seizures over the whole period. Animals were then taken off the video recording system and kept for 4 additional weeks in our animal facilities before they were sacrificed after a total period of 8 weeks of epilepsy.
For neuronal damage and epileptogenesis, statistical analysis between groups was performed by means of a one-way analysis of variance followed by a post-hoc Dunnett or Fisher test using the Statistica software.

[4] = pilo-DZP compared to saline-saline rats

SMILES: NC(=O)OC[C@@H](O)c1ccccc1Cl [Formula 7]
- neuroprotection compared to pilo-DZP rats, ventral entorhinal cortex layers III-IV ([1]; TC60 (60 mg/kg)): 31%
- reduction of neuronal damage recorded in pilo-DZP rats, piriform cortex layer II ([1]; TC60 (60 mg/kg)): 41%
- reduction of neuronal damage recorded in pilo-DZP rats, piriform cortex layers III-IV ([1]; TC60 (60 mg/kg)): 44%
- more damage (worsening of cell loss) compared with pilo-DZP rats, dorsal entorhinal cortex layers III-IV ([1]; pilo-TC10 (10 mg/kg)): 28%
- more damage (worsening of cell loss) compared with pilo-DZP rats, ventral entorhinal cortex layers III-IV ([1]; pilo-TC10 (10 mg/kg)): 35%
- cell loss, CA1 pyramidal layer ([1]; pilo-TC30 (30 mg/kg)): 35%
- cell loss, CA1 pyramidal layer ([1]; pilo-TC60 (60 mg/kg)): 16%
- cell loss, hilus of the dentate gyrus ([1]; pilo-test compound animals (10, 30, 60 mg/kg)): 69-72%
- reduction of neuronal damage, lateral thalamic nucleus ([1]; test compound 60 mg/kg): 65%
- reduction of neuronal damage, mediodorsal thalamic nucleus ([1]; test compound 60 mg/kg): 42%
- protection in CA3b ([1]; test compound 60 mg/kg vs pilo-DZP): significantly neuroprotective
- protection in the CA3a area ([1]; test compound 10, 30, 60 mg/kg vs pilo-DZP): did not afford any protection
- degree of mortality during the first 48 h after SE ([2]; pilo-TC10, TC 10 mg/kg i.p. 1 h after onset of SE, 6/23): 26%
- degree of mortality during the first 48 h after SE ([2]; pilo-TC30, TC 30 mg/kg i.p. 1 h after onset of SE, 5/25): 20%
- degree of mortality during the first 48 h after SE ([2]; pilo-TC60, TC 60 mg/kg i.p. 1 h after onset of SE, 1/23, p<0.01): 4%
- frequency of spontaneous seizures over four weeks of recording ([3]; DZP and TC30 groups): tendency to be higher
- rats with short latencies to seizures (shorter than 40 days after SE) ([3]; TC 90 mg/kg, 4/11): 36%
- rats with short latencies to seizures (shorter than 40 days after SE) ([3]; TC 120 mg/kg, 1/9): 11%
- latency to epilepsy of the long latency subgroup relative to the short latency ([3]; TC 60, 90 and 120 mg/kg, subgroup of 2-4 animals per group): 4-6 times
- frequency of spontaneous seizures over four weeks of recording ([3]; TC60, 90 and 120 groups, significant for total or mean number of seizures over the four weeks): lower
- rats with short latencies to seizures (shorter than 40 days after SE) ([3]; TC at 30 mg/kg (so in the source), 7/10): 70%
- percentage of non-epileptic rats (no seizure over 150 days post-SE) ([3]; at both of the two highest doses of TC (90 and 120 mg/kg)): 45%
- Latency to the first spontaneous seizure ([3]; pilo-TC30 (30 mg/kg), 8 animals, listed as TC): 11.6 ± 2.5 days
- Latency to the first spontaneous seizure ([3]; pilo-TC60 (60 mg/kg), Long latency subgroup (n = 3)): 76.7 ± 15.6 °° days
- Latency to the first spontaneous seizure ([3]; pilo-TC60 (60 mg/kg), Short latency subgroup (n = 7)): 17.4 ± 5.4 days
- Latency to the first spontaneous seizure ([3]; pilo-TC90 (90 mg/kg), Long latency subgroup (n = 2)): 52.0 ± 1.0 ° days
- Latency to the first spontaneous seizure ([3]; pilo-TC90 (90 mg/kg), Short latency subgroup (n = 4)): 14.8 ± 5.7 days
- Latency to the first spontaneous seizure ([3]; pilo-TC120 (120 mg/kg), Long latency subgroup (n = 4)): 84.5 ± 16.7 °° days
- Latency to the first spontaneous seizure ([3]; pilo-TC120 (120 mg/kg), Non epileptic subgroup (n = 4), no seizure over 150 days post-SE): 150** °° days
- Latency to the first spontaneous seizure ([3]; pilo-TC120 (120 mg/kg), Short latency subgroup (n = 1)): 13.0 days

SMILES: CN1C(=O)CN=C(c2ccccc2)c2cc(Cl)ccc21 [DZP, diazepam, reference compound]
- cell loss, CA1 region of the hippocampus (pyramidal cell layer) [1, 4]: 70% and 75%
- cell loss, CA3a [1, 4]: 54%
- cell loss, CA3b [1, 4]: 31%
- cell loss, dorsal entorhinal cortex layer II [1, 4]: 9%
- cell loss, dorsal entorhinal cortex layers III-IV [1, 4]: 15%
- cell loss, hilus of the dentate gyrus [1, 4]: 73%
- cell loss, lateral thalamic nucleus [1, 4]: 91%
- cell loss, mediodorsal thalamic nucleus [1, 4]: 56%
- cell loss, piriform cortex layer II [1, 4]: 53%
- cell loss, piriform cortex layers III-IV [1, 4]: total
- cell loss, ventral entorhinal cortex layer II [1, 4]: totally preserved
- cell loss, ventral entorhinal cortex layers III-IV [1, 4]: 44%
- degree of mortality during the first 48 h after SE ([2]; pilo-DZP, DZP 2 mg/kg i.m. 1 h after onset of SE, 5/22): 23%
- frequency of spontaneous seizures over four weeks of recording ([3]; DZP and TC30 groups): tendency to be higher
- Latency to the first spontaneous seizure ([3]; DZP, 14 animals): 15.5 ± 2.3 days and 15.5 ± 2.34 days
